The values below come from patent US20070026090A1, “Treatment and prevention of inflammatory disease and mitochondrial dysfunction with high dose selenium” (priority 2003, published 2007).

The subject of one assay is J774.2 macrophages. Description: Intracellular ROS (H2O2) production, DCF fluorescence. The assay is classed as cell-based, murine. How it is done: (§1) Cell culture: Murine J774.2 macrophages (kindly provided by Prof. Dov Zipori from the Weizmann Institute of Science) were grown in RPMI medium supplemented with 10% (w/v) fetal calf serum, penicillin (100 U/ml), streptomycin (100 μg/ml) and 1× glutamine at 37° C. in a humidified atmosphere consisting of 95% air and 5% CO2. Experiments were performed on cells at 60% confluence.
Intracellular Radical Oxygen Species (ROS) (H2O2): Intracellular ROS were detected using dihydrodichlorofluorescein (H2DCF-DA). Cells exposed to different treatments were washed three times with PBS. Cells were centrifuged (2000 RPM, 5 min), resuspended in PBS and incubated with 25 μM H2DCF-DA for 30 min at 37° C. To detect intracellular fluorescence, the fluorochrome-loaded cells were excited using a 488-nm argon-ion laser in a flow cytometer. The dichlorofluorescein (DCF) emission was recorded at 530 nm. Data were collected from at least 10,000 cells. Alternatively, DCF fluorescence was recorded using a microfluorometer plate reader (GENios, Tecan, Austria). Cells were washed twice with PBS, then 25 μM H2DCF-DA was added and cells incubated for 30 min at 37° C. Following an additional wash, cells were lysed with PBS-0.2% Triton-X 100. Total fluorescence was recorded and calibrated according to protein content.

A further assay has as its system UCP2. Put plainly: UCP2 transcription and expression (RTPCR, Western blot). The assay is classed as cell-based, murine. How it is done: as §1
Western blots (Sp1, MnSOD, UCP2): Cells were grown in six-well tissue culture plates, treated with selenium for 72 h and activated with LPS and IFN-γ for 24 h. The wells were washed with PBS, scraped and centrifuged
(5 min. 2000 RPM), and lysed by addition of boiling hot lysis buffer (1% SDS, 1 mM sodium ortho-vanadate, 10 mM Tris pH 7.4) to the pellets. Protein content was measured (BIO RAD protein assay kit) and equalized. Sample buffer (containg SDS) was added and the samples were boiled. The samples were subjected to SDS-PAGE followed by western blot analysis. Separated proteins were transferred electrophoretically from the gel to a nitrocellulose membrane (Amersham International plc, Buckinghamshire, ENGLAND). The membrane was blocked in TBS (0.15 M NaCl/10 mM Tris/HCl, pH7.4) containing 5% (v/v) skimmed milk (Blotto), then incubated over night with primary antibodies at RT (diluted 1/2000 in blotto). After being washed six times in TBST [TBS containing 0.05% (v/v) Tween 20], the membrane was incubated for 2 h at room temperature with secondary antibody (diluted 1/5000 in blotto). Immunoreactive bands were detected with ECL western blotting detection reagents (Amersham Pharmacia Biotech, Buckingammshire England) and developed on film (Fuji super RX, Dusseldorf, Germany). Primary antibodies for Sp1 and MnSOD were from BD Transduction Laboratories (Becton Dickenson and Co., San Jose, Calif. USA) and for UCP2 from Alpha Diagnostics LTD (Warszaw, Poland). Secondary antibodies were from Jackson ImmunoResearch (Jackson Labs, Bar Harbor, Maine, USA).
Reverse transcriptase-PCR (RTPCR): Total RNA was prepared and isolated by the Tri-Reagent method according to the manufacturer's protocol (Sigma, St. Louis Mo., USA). Total RNA (1 μg) was converted into cDNA using Reverse-iT first strand synthesis kit (Abgene, UK). Amplification of MnSOD and UCP2 sequences was performed by incubating 10 ng equivalents of DNA with the following oligonucleotide primers:
Left (sense), 5′-[…]-3′ (SEQ ID NO:7) corresponding to nucleotides 372 to 392 of mouse mRNA (GenBank Accession No. NM 011671).
Right (antisense) 5′[…]-3′ (SEQ ID NO: 8) corresponding to nucleotides 826 to 846 of mouse mRNA (GenBank Accession No. NM 011671). The expected PCR product was 474 bp. Actual PCR product was approximately 474 bp, measured on 1.25% agarose gel in TAE containing ethidium bromide.
PCR was performed with 28 cycles (25 cycles for GAPDH) of 30 seconds at 96° C., 30 seconds at 58° C. and 1 min at 72° C. RTPCR products were analyzed on 1.3% (w/v) agarose gels.
(In general: A western blot detects proteins with antibodies after separation by electrophoresis.)

Another assay concerns cytochrome c. Put plainly: Cytochrome c protein in colon tissue (Western blot). Format: in vivo, rat. An excerpt: Western blotting—analysis of Cytochrome c: Colon tissue samples were boiled and kept in sample buffer (Sigma-Aldrich Corp., St Louis, Mo.) immediately following isolation. For electrophoretic separation and immunodetection, the samples were reboiled, and subjected to SDS-PAGE followed by Western blot analysis. Briefly, separated proteins were transferred electrophoretically from the gel to a nitrocellulose membrane (Amersham International plc, Buckinghamshire, England). The membrane was blocked in TBS (0.15 M NaCl/10 mM Tris/HCl [pH7.4]) containing 5% (v/v) skim milk (Blotto), then incubated overnight with the primary antibody at 4° C. (diluted 1/1000 in Blotto). Following six washes in TBST (TBS containing 0.05% v/v Tween 20), the membrane was incubated for 2 hours at room temperature with the secondary antibody (diluted 1/1000 in Blotto). Immunoreactive bands were detected with ECL western blotting detection reagents and developed on film (Shilo et al., 2003). Separated proteins were transferred electrophoretically from the gel to a nitrocellulose membrane (Amersham International plc, Buckinghamshire, England). […] Immunoreactive bands were visualized by detection with ECL Western blotting detection reagents (ECL, Amersham Biosciences, Uppsala, Sweden) followed by exposure of film and quantitation by densitometry (Shilo et al., 2003).

Where only a bound is given, the exact number is not on record here.

Regarding `[Se]` [selenium], in the assay with J774.2 macrophages (0.5-30 μM, resting J774.2 (FIG. 8A)), the “ROS (H2O2) production over the concentration range” value was “reduced ROS production in a dose-dependent manner”. Besides, in the assay with J774.2 macrophages (LPS 10 ng/ml + INFγ 50 units/ml 24 h, then 10 μM (FIG. 16A)), the “ROS production in activated macrophages” value is listed as “reduces”. The “decrease in peroxide production (DCF fluorescence)” value in the assay on J774.2 macrophages (at 30 μM, resting J774.2 (FIG. 8A)) is reported as > 30%. For the same molecule, the “UCP2 transcripts and protein” value with UCP2 (24 or 72 hours, concentration dependent, to a lesser extent than MnSOD) was “reduced the abundance”. Also, the “UCP2 expression, activated macrophages” value in the assay on UCP2 (exposure (72 hours) prior to activation, concentration dependent (FIG. 11)) is reported as “decreased”. In addition, the “inflammation-associated alterations of cytochrome c protein” value in the assay on cytochrome c (24 h after TNBS, supplemented (FIG. 7B lane 4 vs lane 3)) is given as “completely prevented”. Also, in the assay with cytochrome c (FIG. 7B lane 1 vs lane 2), the “characteristics of cytochrome c protein, healthy uninduced rats” value is on record as “no effect”.
